The values that follow come from paper PMC3170879 (Chemmedchem, 2011).

The test concerns the target T1, steroid sulfatase (STS) (Homo sapiens, UniProt P08842).
T1 sequence (P08842 22-583): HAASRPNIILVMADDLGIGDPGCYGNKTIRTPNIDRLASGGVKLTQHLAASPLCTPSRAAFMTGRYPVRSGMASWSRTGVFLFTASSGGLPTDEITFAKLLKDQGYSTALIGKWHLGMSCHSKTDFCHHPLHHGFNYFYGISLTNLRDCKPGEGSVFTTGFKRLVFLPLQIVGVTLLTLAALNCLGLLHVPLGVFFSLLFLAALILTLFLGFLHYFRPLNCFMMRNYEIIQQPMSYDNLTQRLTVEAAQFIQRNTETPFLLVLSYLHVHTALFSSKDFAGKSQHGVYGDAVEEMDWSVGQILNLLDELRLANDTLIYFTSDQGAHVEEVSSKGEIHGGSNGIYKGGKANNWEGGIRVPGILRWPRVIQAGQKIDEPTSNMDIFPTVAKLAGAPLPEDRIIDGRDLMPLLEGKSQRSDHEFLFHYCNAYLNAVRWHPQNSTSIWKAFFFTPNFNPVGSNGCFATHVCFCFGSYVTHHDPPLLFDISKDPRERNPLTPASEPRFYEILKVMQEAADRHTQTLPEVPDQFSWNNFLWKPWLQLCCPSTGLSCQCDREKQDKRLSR
Kind of test: radiometric sulfatase assay, intact JEG-3 monolayer. The note with it: read-out: [drawing 5]; [6,7-3H]oestrone sulfate substrate, 1 h. Type of test: cell-based.

Take `CN(C)S(=O)(=O)Oc1ccc(C(c2ccc(C#N)cc2)n2cncn2)cc1Br` (racemic) [compound 42, 2-Bromo-4-((4-cyanophenyl)(1H-1,2,4-triazol-1-yl)methyl)phenyl dimethylsulfamate]: the IC50 was above 10 µM.
